Measurements published in publication PMC4835244 (Stem Cells Translational Medicine, 2016).
Where a name gives a salt, the structure may show the parent alone. Read-outs that look alike come from different tables or passages of the source.

Key:
p53 = conditions: ref PubChem AID 720552; cited from earlier work
[1] = test system: ARE/Nrf2 pathway (CellSensor ARE-bla HepG2 cell line); test: ARE-bla β-lactamase reporter gene assay; assay type: cell-based; conditions: HepG2 cells
[2] = test system: activator protein 1 (AP1); conditions: assays previously performed; cited from earlier work
heat shock element (HSE) = conditions: ref PubChem AID 743228; cited from earlier work
in vitro = conditions: human

| Structure (SMILES) | Activation of ARE-β-lactamase expression [1] | Shape of activity in the ARE-bla assay [1] | Cytotoxicity to HepG2 cells (CTG) (HepG2 cells; human, 18 h) | other results |
| --- | --- | --- | --- | --- |
| OC[C@H]1O[C@H]([S-])[C@H](O)[C@@H](O)[C@@H]1O.[Au+] [Aurothioglucose] | directly activated ARE-β-lactamase expression | bell shaped |  | Activity in β-lactamase reporter gene assay for p53 (p53): not active; Cytotoxicity to HepG2 cells (CTG) (HepG2 cells): toxic at the highest concentrations |
| CC(C)(C)c1ccc(C(=O)CCCN2CCC(OC(c3ccccc3)c3ccccc3)CC2)cc1 [Ebastine] |  |  | cytotoxic to HepG2 cells |  |
| c1ccc2c(c1)OCC(C1=NCCN1)O2 (centres unmarked) [Idazoxan hydrochloride] | directly activated ARE-β-lactamase expression | simple increase in ARE activation | not toxic to HepG2 cells at the concentrations tested | Activity in β-lactamase reporter gene assay for p53 (p53): not active in any of these assays; Activity in β-lactamase reporter gene assay for AP1 [2]: not active in any of these assays; Activity in β-lactamase reporter gene assay for HSE (heat shock element (HSE)): not active in any of these assays |
| O=C1c2ccccc2C(=O)c2c(NCCc3ccc(O)cc3)ccc(NCCc3ccc(O)cc3)c21 [JFD00244] | active in only one repetition |  |  |  |
| Cc1ccccc1/C=C/C1=NCCN1 [Metrazoline oxalate] | directly activated ARE-β-lactamase expression | simple increase in ARE activation | not toxic to HepG2 cells at the concentrations tested |  |
| COc1c(C)c2c(c(O)c1C/C=C(\C)CCC(=O)O)C(=O)OC2 [Mycophenolic acid] | active in only one repetition |  |  |  |
| COc1cccc2c1C(=O)c1c(O)c3c(c(O)c1C2=O)C[C@@](O)(C(=O)CO)C[C@@H]3O[C@H]1C[C@H](N2CCO[C@H](OC)C2)[C@H](O)[C@H](C)O1 [Nemorubicin] |  |  | cytotoxic to HepG2 cells |  |
| O=C1OC(=O)[C@H]2[C@@H]1[C@@H]1CC[C@H]2O1 [Norcantharidin] | active in only one repetition |  |  |  |
| CC(C)(C)c1ccc(C(O)CCCN2CCC(C(O)(c3ccccc3)c3ccccc3)CC2)cc1 (centres unmarked) [Terfenadine] |  |  |  | IC50 at 24 h (in vitro): 6.7 µM |
| C/C=C(/C)C(=O)O[C@H]1C(C)=C2[C@H]([C@@H]1OC(=O)CCCCCCC)[C@@](C)(OC(C)=O)C[C@H](OC(=O)CCC)[C@@]1(O)[C@H]2OC(=O)[C@@]1(C)O [Thapsigargin] |  |  | cytotoxic to HepG2 cells |  |
